Read-outs that look alike come from different tables or passages of the source. No end group written: not given here.
Experiments:
[1] = molecular target: HLA-A*2902 (Homo sapiens, UniProt P04439, A270S/D101N/D185E/E176V/E277Q/E87Q/F33T/G231S/H175R/I121M/I218V/I322F/K168Q/L300P/L318F/M331R/P208A/P217A/Q86L/T323A/T345S/V100A/V358M); assay: MHC molecular binding / Capture assay, IC50: A*2902
[2] = molecular target: HLA-A*3002 (Homo sapiens, UniProt P04439, D101N/D140H/D185E/E176R/F33S/G80R/H175R/K168Q/Q94H/R138E/R41S/V100E); assay: biochemical; type: binding
[3] = molecular target: HLA-A*2301 (Homo sapiens, UniProt P04439, D101N/D140Y/D185E/E176V/E190D/F33S/G103R/G107R/H175R/I119L/I121M/I306V/K168Q/K335N/L105A/L300P/N151K/N90K/P307H/Q86E/Q94H/R106L/R138H/R89G/T104I/T345S/V100E/W191G/Y123F); assay: biochemical; type: binding
[4] = molecular target: HLA-A*2402 (Homo sapiens, UniProt P04439, D101N/D140Y/D185E/E176V/E190D/F33S/G103R/G107R/I119L/I121M/I306V/K335N/L105A/L180Q/L300P/N151K/N90K/Q86E/Q94H/R106L/R138H/R89G/T104I/T345S/V100E/W191G/Y123F); assay: MHC molecular binding / Capture assay, IC50: A*2402
[5] = molecular target: HLA-B*4402 (Homo sapiens, UniProt P01889, A223V/A65T/A93T/A95T/D201E/D98Y/E176V/E187L/E204Q/E69K/G107R/H137Y/K202T/L105A/L119I/N104T/N87E/Q56L/Q94N/R106L/R155S/R180D/S101N/S121R/S35A/S48T/T118I/V36M/W191S/Y140D/Y91S); assay: biochemical; type: binding
[6] = molecular target: HLA-B*4501 (Homo sapiens, UniProt P01889, A329T/A65T/A93T/A95T/C349S/D138N/D201E/D98Y/E176V/E187L/E204Q/E69K/H137Y/K202T/L119W/N87E/Q56L/Q94N/R155S/R180D/S121R/S35A/S48T/V127L/V306I/V36M/W191S/Y140L/Y33H/Y91S); assay: biochemical; type: binding
[7] = molecular target: HLA-B*1801 (Homo sapiens, UniProt P01889, A329T/A93T/A95T/C349S/D201E/D54G/D98Y/E176V/E187T/E204Q/E69T/K202T/Q94N/R155S/R180L/S121R/V306I/Y140S/Y195H/Y33H/Y91S); assay: biochemical; type: binding
[8] = molecular target: HLA-B*4002 (Homo sapiens, UniProt P01889, A65T/A93T/A95T/D138N/D201E/D98Y/E176V/E204Q/E69K/K202T/N87E/Q56L/Q94N/R180L/S48T/Y33H/Y91S); assay: biochemical; type: binding
[9] = molecular target: HLA-B*4001 (Homo sapiens, UniProt P01889, A65T/A93T/A95T/D138N/D98Y/E176V/E69K/N87E/Q56L/Q94N/R180L/S121R/S35A/S48T/T167S/V36M/W171L/Y33H/Y91S); assay: biochemical; type: binding
[10] = read-out: A*2301 binding affinity (IC50)
[11] = read-out: A*2402 binding affinity (IC50)
[12] = Binding affinity to A*2902 (expressed as an IC50)
[13] = Binding affinity to A*3002 (expressed as an IC50)

| Compound | IC50 [3] [nM] | IC50 [4] [nM] | IC50 [1] [nM] | IC50 [2] [nM] | IC50 [6] [nM] | also measured |
| --- | --- | --- | --- | --- | --- | --- |
| LYYLFNQHI | 1.4 | 33 |  |  |  | IC50 ([1]; A*2902 binding affinity (IC50)): 20100 nM; IC50 ([2]; A*3002 binding affinity (IC50)): 11000 nM |
| LYVYHTQGY | 6090 | 7140 | 216 | 258 |  |  |
| RFHSIAGQF | 2.9 | 28 | 481 | 1.2 |  |  |
| AENLWVTVS |  |  |  |  | 34 | IC50 [5]: 4220 nM; IC50 [7]: 25700 nM |
| NYACTELKL | 131 | 1740 | 77800 | 49100 |  |  |
| LFYSKVRKF | 277 | 2010 | 11200 | 632 |  |  |
| VFADLRIVF | 2.5 | 23 | 87 | 24100 |  |  |
| KENLWVTVY |  |  |  |  | 6220 | IC50 [8]: 373 nM; IC50 [5]: 308 nM; IC50 [7]: 184 nM; IC50 [9]: 2740 nM |
| VYNFACTEF | 2.1 | 14 | 774 | 784 |  |  |
| KYLFTDLRI | 1.9 | 108 | 78600 | 339 |  |  |
| NYSVYGNTF | 29 | 28 | 9120 | 2560 |  |  |
| QEILDLWVY |  |  |  |  |  | IC50 ([8]; B*4002): 4520 nM; IC50 ([5]; B*4402): 264 nM; IC50 ([6]; B*4501): 6260 nM; IC50 ([7]; B*1801): 52 nM; IC50 ([9]; B*4001): 740 nM |
| AYKDLFVVY | 905 | 1550 | 639 | 1.3 |  |  |
| AENNWVTVY |  |  |  |  | 99 |  |
| KFLFTDLRF | 0.74 | 12 | 44 | 152 |  |  |
| AENLWVTVT |  |  |  |  | 10 | IC50 [8]: 7.8 nM; IC50 [5]: 2700 nM; IC50 [9]: 947 nM |
| VYDFVFADF | 2.2 | 9.9 | 1230 | 3960 |  |  |
| LYGDTLEQTF | 24 | 91 | 40900 | 42000 |  |  |
| LYYSKVRKY | 2740 | 21900 | 1450 | 28 |  |  |
| AEKLWVTVY |  |  |  |  | 219 | IC50 [5]: 168 nM; IC50 [9]: 18300 nM |
| YEDLRVLSF |  |  |  |  | 18700 | IC50 [8]: 71 nM; IC50 [5]: 24 nM; IC50 [7]: 20 nM; IC50 [9]: 67 nM |
| KIFIKSLFHI |  |  |  |  |  | IC50 ([1]; read-out: A*2902 binding affinity (IC50)): > 50000 nM; IC50 [3, 10]: 2 nM; IC50 [4, 11]: 4.1 nM |

| Compound | IC50 [3] [nM] | IC50 [4] [nM] | IC50 [1] [nM] | IC50 [2] [nM] | IC50 [6] [nM] | also measured |
| --- | --- | --- | --- | --- | --- | --- |
| CC(C)C[C@H](NC(=O)[C@H](Cc1c[nH]c2ccccc12)NC(=O)[C@@H]1CCCN1C(=O)[C@H](Cc1ccccc1)NC(=O)[C@H](CO)NC(=O)[C@@H](NC(=O)[C@H](Cc1ccc(O)cc1)NC(=O)[C@@H](N)CCCCN)[C@@H](C)O)C(=O)O | 177 | 208 | > 172000 |  |  | IC50 [1, 12]: > 172000 nM; IC50 [2, 13]: 346 nM |
| LYPEPTDLF | 17 | 38 | 1150 | 30700 |  |  |
| AYRDLCIVY | 1480 | 2090 | 7120 | 66 |  |  |
| DEIGVIDLY |  |  |  |  |  | IC50 ([8]; B*4002): > 77300 nM; IC50 ([5]; B*4402): 707 nM; IC50 ([6]; B*4501): > 49000 nM; IC50 ([9]; B*4001): > 114000 nM |
| RYHSIAGQY | 1900 | 3170 | 544 | 1.4 |  |  |
| MFVPKYFEL | 11 | 266 |  |  |  | IC50 ([1]; A*2902 binding affinity (IC50)): 2560 nM; IC50 ([2]; A*3002 binding affinity (IC50)): 8560 nM |
| AENLWVTVG |  |  |  |  | 35 | IC50 [8]: 47 nM; IC50 [7]: 39700 nM; IC50 [9]: 861 nM |
| VYEFAFKDLF | 1.7 | 15 | 1970 | 2040 |  |  |
| AENLWVTVH |  |  |  |  | 120 | IC50 [8]: 151 nM; IC50 [9]: 493 nM |
| RYPLTFGF | 6.4 | 3.3 | 9700 | 6330 |  |  |
| RFPLTFGF | 124 | 178 | 12800 | 13500 |  |  |
| VYRHCEYIL | 64 | 2200 |  |  |  | IC50 ([1]; A*2902 binding affinity (IC50)): 118000 nM; IC50 ([2]; A*3002 binding affinity (IC50)): 3330 nM |
| AENFWVTVY |  |  |  |  | 289 | IC50 [8]: 542 nM; IC50 [9]: 1390 nM |
| TENLWVTVY |  |  |  |  |  | IC50 ([6]; B*4501): 5300 nM; IC50 ([9]; B*4001): 14000 nM |
| AENLWVTLY |  |  |  |  | 349 | IC50 [8]: 731 nM; IC50 [5]: 199 nM; IC50 [7]: 392 nM |
| AFADLTVVF | 30 | 203 | 779 | 137 |  |  |
| TFGWCFKF | 462 | 3420 | 4450 | > 10100 |  |  |
| AFKDLFVVF | 6.8 | 294 | 3050 | 829 |  |  |
| VYYNILIVL | 52 | 265 |  |  |  | IC50 ([1]; A*2902 binding affinity (IC50)): > 192000 nM |
| AENVWVTVY |  |  |  |  | 737 | IC50 [8]: 386 nM; IC50 [9]: 2240 nM |
| AENLWVTKY |  |  |  |  | 201 | IC50 [8]: 2000 nM; IC50 [7]: 511 nM; IC50 [9]: 1010 nM |
| LYVYHTQGYF | 23 | 38 | 1700 | 1220 |  |  |

| Compound | IC50 [3] [nM] | IC50 [4] [nM] | IC50 [1] [nM] | IC50 [2] [nM] | IC50 [6] [nM] | also measured |
| --- | --- | --- | --- | --- | --- | --- |
| AENLWVTVV |  |  |  |  | 35 | IC50 [8]: 19 nM; IC50 [5]: 5760 nM; IC50 [7]: 10700 nM; IC50 [9]: 84 nM |
| AENLWVTDY |  |  |  |  | 328 | IC50 [5]: 191 nM; IC50 [7]: 1000 nM; IC50 [9]: 930 nM |
| FYSRIRELRF | 1.6 | 11 | 83 | 12600 |  |  |
| AEPAAEGVGAV |  |  |  |  | 1500 | IC50 [5]: > 23900 nM; IC50 [7]: > 8610 nM; IC50 [9]: 20400 nM |
| IIFHFFLFLL |  |  |  |  |  | IC50 [3, 10]: 80 nM; IC50 [4, 11]: 208 nM |
| AFRDLCIVF | 369 | 1010 | 6720 | 3300 |  |  |
| CEKCSKPCARV |  |  |  |  |  | IC50 ([6]; read-out: B*4501): 1560 nM |
| AENLFVTVY |  |  |  |  | 232 | IC50 [8]: 334 nM; IC50 [7]: 29 nM; IC50 [9]: 970 nM |
| IEDPPYNSL |  |  |  |  | 18700 | IC50 [8]: 688 nM; IC50 [7]: 35500 nM; IC50 [9]: 16 nM |
| FYSKVRKYRF | 13 | 18 |  | 1230 |  |  |
| EYRHYQYSF | 2.3 | 21 | 13700 | 430 |  |  |
| RFLSKISEF | 2.5 | 58 | 40100 | 201 |  |  |
| VYREGNPFGF | 91 | 197 | 11100 | 21900 |  |  |
| AEFLWVTVY |  |  |  |  | 472 | IC50 [8]: 240 nM; IC50 [5]: 1010 nM; IC50 [7]: 131 nM; IC50 [9]: 183 nM |
| VYCKTVLEF | 4.7 | 50 | 610 | 1140 |  |  |
| AEPAAEGVGA |  |  |  |  | 104 | IC50 [5]: > 22600 nM; IC50 [7]: > 8120 nM; IC50 [9]: 4120 nM |
| AENLPVTVY |  |  |  |  | 246 | IC50 [5]: 356 nM; IC50 [7]: 20 nM; IC50 [9]: 205 nM |
| ADLMGYIPL |  |  |  |  |  | IC50 ([8]; B*4002): 4.7 nM; IC50 ([5]; B*4402): > 21400 nM; IC50 ([6]; B*4501): > 49000 nM; IC50 ([7]; B*1801): > 7620 nM; IC50 ([9]; B*4001): 959 nM |
| RYPLTFGW | 3840 | 127 |  |  |  | IC50 ([1]; A*2902 binding affinity (IC50)): 13900 nM |
| AFKDLCIVF | 16 | 284 | 5850 |  |  |  |
| SYKSSKRDKF | 797 | 256 |  |  |  | IC50 [1, 12]: 12600 nM; IC50 [2, 13]: 88 nM |
| KYSKSSIVGW | 491 | 4060 | > 69400 | > 34500 |  |  |
